# Results taken from US8088804B2, “N-hydroxyamide derivatives possessing antibacterial activity” (Pfizer Inc., priority 2005, dated 2012).
# Like-named read-outs stand apart in the source and are kept apart here.
# Key:
# E. coli tolC = experiment: Susceptibility testing (MIC, CLSI microdilution); assay type: cell-based, Escherichia coli; settings: 20 h at 35° C., unit assumed
# Method: (§1) Compounds were tested following the microdilution method of CLSI (Clinical and Laboratory Standards Institute. Methods for dilution antimicrobial susceptibility tests for bacteria that grow aerobically; Approved standard—sixth edition. CLSI document M7-A5, CLSI, Wayne, Pa. 2003). Assays were performed in sterile plastic 96-well microtiter trays with round bottom wells (Greiner).
# (§2) Stock solutions of test compounds and control antibiotics were prepared at 10 mg/ml in DMSO. Serial 2-fold dilutions of each drug were performed in a microtiter plate across each row using DMSO as solvent at 100-fold the desired final concentration. Wells in columns #1-11 contain drug and column #12 was kept as a growth control for the organism with no drug. Each well in the mother plate was diluted with sterile deionized water and DMSO, mixed, and volumes of 10 μl distributed to each well in the resulting assay plates.
# (§3) Stock cultures were prepared using the Microbank™ method (Pro-Lab Diagnostics) and stored at −80° C. To propagate each strain, one bead was removed from the frozen vial and aseptically streaked onto Trypticase Soy Agar (Difco) which were incubated at 35° C. Standardized inocula were prepared using the direct colony suspension method according to CLSI guidelines (Clinical and Laboratory Standards Institute. Methods for dilution antimicrobial susceptibility tests for bacteria that grow aerobically; Approved standard—sixth edition. CLSI document M7-A5, CLSI, Wayne, Pa., 2003). Isolated colonies were selected from an 18-24 hr agar plate and resuspended in 0.9% sterile saline to match a 0.5 McFarland turbidity standard using a calorimeter (Vitek) at 80% of transmitance. The suspension was used within 15 minutes of preparation.
# (§4) Mueller-Hinton Broth (MHB) (Difco) was prepared at a 1.1× concentration and supplemented with Ca++ and Mg++ as recommended by CLSI. For each organism, the standardized suspension was diluted 1:180 into appropriate growth medium in a sterile reservoir. After mixing, wells in the drug-containing assay plates were inoculated with a volume of 90 μl. Thus, for each minimum inhibitory concentration (MIC) determination, each well contains a final volume of 100 μl with an inoculum size of approximately 5×10^5 colony forming units (cfu)/ml and no more than 1% DMSO.
# (§5) The completed microtiter plates were incubated 20 h at 35° C. in ambient air. Optical density of each well was determined at 600 nm using a VersaMax Microplate reader (Molecular Devices, Sunnyvale, Calif.). The MIC was defined as the lowest drug concentration causing complete suppression of visible bacterial growth.
# E. coli (2) = experiment: Susceptibility testing (MIC, CLSI microdilution); assay type: cell-based, Escherichia coli; settings: 20 h at 35° C., in µg/mL (unit assumed)
# Method: as §1, §2, §3, §4, §5
# K. pneu. = experiment: Susceptibility testing (MIC, CLSI microdilution); assay type: cell-based, Klebsiella pneumoniae; settings: 20 h at 35° C., unit assumed
# Method: as §1, §2, §3, §4, §5
# P. ae LpxC enzyme = P. ae LpxC enzyme (Pseudomonas aeruginosa, UniProt P47205); experiment: Enzyme inhibition testing (fluorescamine assay); assay type: biochemical; settings: for inhibition at 0.5 µg/mL: @0.5 μg/ml; for inhibition at 10 µg/mL: @10 μg/ml
# Method: Compounds were tested based on a published method (Wang W., 2001, Anal Biochem, 290, 338-46) with modifications. Enzyme assays were performed in the assay buffer (50 mM HEPES, pH8, 0.005% Brij, 50 μM ZnSO4, 1 mg/ml BSA) in 96-well V-bottom microtiter plates.
# Stock solutions of test compounds and control antibiotics are prepared at 10 mg/ml in DMSO and are diluted in the assay buffer to 6-fold the final testing concentration. 5 μl compound dilution is distributed to the well of the assay plate. EDTA is used as positive control and the final concentration in assay is 12.5 mM.
# P. ae LpxC enzyme dilution in the assay buffer is added to the compound in plate and pre-incubated with the compound at room temperature for 10 min. LpxC substrate is added to initiate the enzyme reaction and the final enzyme and substrate concentrations are 1.2 μM and 0.4 mM, respectively. The reaction continues at RT for 4 hrs before diluted with 45 μl of Borate buffer (0.4 M, pH9), followed by addition of 40 μl derivatization reagent (fluorescamine 2 mg/ml DMF). This mixture is incubated at RT for 10 min followed by addition of 150 μl DMF/H2O (1:1). The resulting solution is loaded onto Millipore filter unit (Microcon 10 k MWCO) and spun at 13 k rpm on bench top centrifuge for 15 min. 100 μl of this filtrate is transferred to a low fluorescence clear-bottom 96-well plate (Corning) and the fluorescence is detected at ex360 nm and em465 nm on a Tecan fluorescence plate reader. The percent inhibition is calculated based on EDTA produces 100% inhibition and negative control produces 100% activity.
# H. influen. = experiment: Susceptibility testing (MIC, CLSI microdilution); assay type: cell-based, Haemophilus influenzae; settings: 20 h at 35° C., unit assumed
# Method: as §1, §2, §3, §4, §5
# P. aerug. Hypersuc = experiment: Susceptibility testing (MIC, CLSI microdilution); assay type: cell-based, Pseudomonas aeruginosa; settings: 20 h at 35° C., Δ efflux, hypersusceptible strain, unit assumed
# Method: as §1, §2, §3, §4, §5
# P. aerug. (2) = experiment: Susceptibility testing (MIC, CLSI microdilution); assay type: cell-based, Pseudomonas aeruginosa; settings: 20 h at 35° C., in µg/mL (unit assumed)
# Method: as §1, §2, §3, §4, §5
# [1] = @0.1 μg/ml, read-out: ENZYME (percent inhibition)
# [2] = read-out: ENZYME (percent inhibition)
# P. ae LpxC enzyme, sequence (P47205 whole entry): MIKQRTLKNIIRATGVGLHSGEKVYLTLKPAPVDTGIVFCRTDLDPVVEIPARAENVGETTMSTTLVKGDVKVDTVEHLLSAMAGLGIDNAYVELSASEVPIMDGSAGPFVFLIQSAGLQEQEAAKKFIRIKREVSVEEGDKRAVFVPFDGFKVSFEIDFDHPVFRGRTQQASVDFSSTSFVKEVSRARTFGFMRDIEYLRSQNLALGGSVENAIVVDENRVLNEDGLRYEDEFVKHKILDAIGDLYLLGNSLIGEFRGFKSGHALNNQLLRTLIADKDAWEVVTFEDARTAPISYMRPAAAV
Structure (SMILES),MIC E. coli tolC (E. coli tolC),MIC E. coli (2) (E. coli (2)),MIC K. pneu. (K. pneu.),inhibition at 0.1 µg/mL (P. ae LpxC enzyme; [1]),MIC H. influen. (H. influen.),MIC P. aerug. Hypersuc (P. aerug. Hypersuc),MIC P. aerug. (2) (P. aerug. (2)),inhibition at 0.5 µg/mL (P. ae LpxC enzyme; [2]),inhibition at 10 µg/mL (P. ae LpxC enzyme; [2]),"inhibition at 0.1 µg/mL (P. ae LpxC enzyme; read-out: ENZYME (percent inhibition), @0.1 μg/ml)","inhibition at 1 µg/mL (P. ae LpxC enzyme; @1 μg/ml, read-out: ENZYME (percent inhibition))"
"CCCc1ccc(-c2ccc(C(=O)NC(C(=O)NO)C(F)(F)F)cc2)cc1 (racemic) [Compound 20, DL-4′-Propyl-biphenyl-4-carboxylic acid (2,2,2-trifluoro-1-hydroxycarbamoyl-ethyl)-amide]",0.25 µg/mL,0.5,0.5 µg/mL,< 10%,0.25 µg/mL,1 µg/mL,16,–,–,–,–
"CCCc1ccc(-c2ccc(C(=O)NC(CF)C(=O)NO)cc2)cc1 (racemic) [Compound 21, DL-4′-Propyl-biphenyl-4-carboxylic acid (2-fluoro-1-hydroxycarbamoyl-ethyl)-amide]",4 µg/mL,16-32,8 µg/mL,–,8 µg/mL,16 µg/mL,>64,77%,–,–,–
"CCOc1ccc(-c2ccc(C(=O)NC(C(=O)NO)C(F)(F)F)cc2)cc1 (racemic) [Compound 22, DL-4′-Ethoxy-biphenyl-4-carboxylic acid (2,2,2-trifluoro-1-hydroxycarbamoyl-ethyl)-amide]",0.25 µg/mL,2,1 µg/mL,< 10%,0.5 µg/mL,0.5 µg/mL,16-32,–,–,–,–
"O=C(NC(C(=O)NO)C(F)(F)F)c1ccc(-c2cc(F)cc(F)c2)cc1 (racemic) [Compound 23, DL-3′,5′-Difluoro-biphenyl-4-carboxylic acid (2,2,2-trifluoro-1-hydroxycarbamoyl-ethyl)-amide]",8 µg/mL,16,16 µg/mL,24%,16 µg/mL,2 µg/mL,8,–,–,–,–
"O=C(NC(C(=O)NO)C(F)(F)F)c1ccc(-c2ccsc2)cc1 (racemic) [Compound 24, DL-4-Thiophen-3-yl-N-(2,2,2-trifluoro-1-hydroxycarbamoyl-ethyl)-benzamide]",16 µg/mL,>64,> 64 µg/mL,13%,8 µg/mL,2 µg/mL,32,–,–,–,–
"O=C(NC(C(=O)NO)C(F)(F)F)c1ccc(-c2ccc(F)cc2)cc1 (racemic) [Compound 25, DL-4′-Fluoro-N-(1,1,1-trifluoro-3-(hydroxyamino)-3-oxopropan-2-yl)biphenyl-4-carboxamide]",4 µg/mL,8,16 µg/mL,12%,4 µg/mL,2 µg/mL,8-16,–,–,–,–
"CCCc1ccc(-c2ccc(C(=O)N3CS(=O)(=O)CC3C(=O)NO)cc2)cc1 (stereo in doubt) [Compound 17, (S)-N-Hydroxy-3-(4′-propylbiphenylcarbonyl)thiazolidine-sulfone-4-carboxamide]",8 µg/mL,–,16 µg/mL,–,> 64 µg/mL,2 µg/mL,16,98%,–,–,–
"CCCc1ccc(-c2ccc(C(=O)NC(CSC)C(=O)NO)cc2)cc1 (stereo in doubt) [Compound 28, (S)-N-(1-(Hydroxyamino)-3-(methylthio)-1-oxopropan-2-yl)-4′-propylbiphenyl-4-carboxamide]",32 µg/mL,>64,> 64 µg/mL,13%,> 64 µg/mL,> 64 µg/mL,>64,–,–,–,–
"CCCc1ccc(-c2ccc(C(=O)NC(CS(C)(=O)=O)C(=O)NO)cc2)cc1 (stereo in doubt) [Compound 29, (S)-N-(1-(Hydroxyamino)-3-(methylsulfone)-1-oxopropan-2-yl)-4′-propylbiphenyl-4-carboxamide]",≤ 0.06 µg/mL,>64,4 µg/mL,59%,> 64 µg/mL,32 µg/mL,>64,–,–,–,–
"CCCc1ccc(-c2ccc(C(=O)N3CC[C@H](N=[N+]=[N-])[C@H]3C(=O)NO)cc2)cc1 [Compound 1, (2S,3S)-3-Azido-N-hydroxy-1-(4′-propylbiphenylcarbonyl)pyrrolidine-2-carboxamide]",32 µg/mL,>64,> 64 µg/mL,–,> 64 µg/mL,> 64 µg/mL,>64,35%,–,–,–
CCCc1ccc(-c2ccc(C(=O)N3CC[C@H](N)[C@H]3C(=O)NO)cc2)cc1 [Compound 2],32 µg/mL,64,64 µg/mL,–,16 µg/mL,64 µg/mL,–,65%,–,–,–
"CCCc1ccc(-c2ccc(C(=O)N3CC[C@H](NS(C)(=O)=O)[C@H]3C(=O)NO)cc2)cc1 [Compound 3, (2S,3S)-N-Hydroxy-3-(methylsulfonamido)-1-(4′-propylbiphenylcarbonyl)pyrrolidine-2-carboxamide]",32 µg/mL,>64,> 64 µg/mL,–,> 64 µg/mL,> 64 µg/mL,>64,55%,–,–,–
CCCc1ccc(-c2ccc(C(=O)N3CC[C@H](OC)[C@H]3C(=O)NO)cc2)cc1 [Compound 7],64 µg/mL,–,64 µg/mL,–,> 64 µg/mL,64 µg/mL,>64,–,84%,–,–
CCCc1ccc(-c2ccc(C(=O)N3C[C@H](N)[C@@H](O)[C@H]3C(=O)NO)cc2)cc1 [Compound 12],> 64 µg/mL,>64,> 64 µg/mL,–,32 µg/mL,8 µg/mL,–,95%,–,–,–
O=C(NO)c1cocc1C(=O)Nc1cccc(SC(F)(F)F)c1 [Compound 32],64 µg/mL,–,> 64 µg/mL,–,> 64 µg/mL,> 64 µg/mL,>64,–,< 10%,–,–
"O=C(NO)[C@H]1N(C(=O)c2ccc(-c3cc(F)cc(F)c3)cc2)CCS1(=O)=O [Compound 36, (S)-3-(3′,5′-Difluorobiphenylcarbonyl)-N-hydroxythiazolidinesulfone-2-carboxamide]",0.125 µg/mL,>64,> 64 µg/mL,–,> 64 µg/mL,8 µg/mL,–,–,–,8%,–
CCCc1ccc(-c2ccc(C(=O)N3CC[C@@H](O)[C@H]3C(=O)NO)cc2)cc1 [Compound 39],64 µg/mL,>64,> 64 µg/mL,–,> 64 µg/mL,4 µg/mL,–,–,–,–,95.2%
